Data reported in US11382328B2, “Rapid drug discovery methods for pathogen inactivation” (priority 2019, dated 2022).

System: E. coli strain W3110
Assay: Synergy assays: Biolog chemical sensitivity panels with Group IB metal, coefficient of drug interaction (CDI) from relative growth
Assay type: cell-based
Details: for CDI (coefficient of drug interaction), gold + biocide: Gold (μM); for CDI (coefficient of drug interaction), copper mixed with biocide: Copper (mM) section; for CDI (coefficient of drug interaction), copper mixed with biocide / CDI (coefficient of drug interaction), silver + biocide: 4th of four biocide concentrations
[1] = Copper (mM), 1st of 3 copper concentrations (head line not shown), biocide concentration 1 of 4, E. coli
[2] = Copper (mM), 1st of 3 copper concentrations (head line not shown), biocide concentration 2 of 4, E. coli
[3] = Copper (mM), 1st of 3 copper concentrations (head line not shown), biocide concentration 3 of 4, E. coli
[4] = Copper (mM), 1st of 3 copper concentrations (head line not shown), biocide concentration 4 of 4, E. coli
[5] = Copper (mM), 2nd of 3 copper concentrations (head line not shown), biocide concentration 1 of 4, E. coli
[6] = Copper (mM), 2nd of 3 copper concentrations (head line not shown), biocide concentration 2 of 4, E. coli
[7] = Copper (mM), 2nd of 3 copper concentrations (head line not shown), biocide concentration 3 of 4, E. coli
[8] = Copper (mM), 2nd of 3 copper concentrations (head line not shown), biocide concentration 4 of 4, E. coli
[9] = Copper (mM), 3rd of 3 copper concentrations (head line not shown), biocide concentration 1 of 4, E. coli
[10] = Copper (mM), 3rd of 3 copper concentrations (head line not shown), biocide concentration 2 of 4, E. coli
[11] = Copper (mM), 3rd of 3 copper concentrations (head line not shown), biocide concentration 3 of 4, E. coli
[12] = Copper (mM), 3rd of 3 copper concentrations (head line not shown), biocide concentration 4 of 4, E. coli
[13] = Silver 0.5 μM, biocide concentration 1 of 4
[14] = Silver 0.5 μM, biocide concentration 2 of 4
[15] = Silver 0.5 μM, biocide concentration 3 of 4
[16] = Silver 0.5 μM, biocide concentration 4 of 4
[17] = Silver 1.0 μM, biocide concentration 2 of 4
[18] = Silver 1.0 μM, biocide concentration 3 of 4
[19] = Silver 1.0 μM, biocide concentration 4 of 4
[20] = Silver 5.0 μM, biocide concentration 3 of 4
[21] = Silver 5.0 μM, biocide concentration 4 of 4
[22] = first of 3 gold concentrations, biocide concentration 3 of 4
[23] = first of 3 gold concentrations, biocide concentration 4 of 4
[24] = second of 3 gold concentrations, biocide concentration 3 of 4
[25] = second of 3 gold concentrations, biocide concentration 4 of 4
[26] = third of 3 gold concentrations, biocide concentration 3 of 4
[27] = third of 3 gold concentrations, biocide concentration 4 of 4
[28] = 1st of 3 copper concentrations (value not shown)
[29] = 3rd of 3 copper concentrations (value not shown)

## O=S(=O)(F)Cc1ccccc1 [PMSF]
[1]
  CDI (coefficient of drug interaction): 0.76
[2]
  CDI (coefficient of drug interaction): 0.71
[3]
  CDI (coefficient of drug interaction): 0.62
[4]
  CDI (coefficient of drug interaction): 0.71
[5]
  CDI (coefficient of drug interaction): 0.59
[6]
  CDI (coefficient of drug interaction): 0.58
[7]
  CDI (coefficient of drug interaction): 0.37
[8]
  CDI (coefficient of drug interaction): 0.46
[9]
  CDI (coefficient of drug interaction): 0.41
[10]
  CDI (coefficient of drug interaction): 0.42
[11]
  CDI (coefficient of drug interaction): 0.34
[12]
  CDI (coefficient of drug interaction): 0.38
Gold section of Table 5, first of three gold concentrations (μM, value not given), biocide concentration 1 of 4
  CDI (coefficient of drug interaction): 1.07
Gold section of Table 5, first of three gold concentrations (μM, value not given), biocide concentration 2 of 4
  CDI (coefficient of drug interaction): 0.96
Gold section of Table 5, first of three gold concentrations (μM, value not given), biocide concentration 3 of 4
  CDI (coefficient of drug interaction): 0.93
Gold section of Table 5, first of three gold concentrations (μM, value not given), biocide concentration 4 of 4
  CDI (coefficient of drug interaction): 0.74
Gold section of Table 5, second of three gold concentrations (μM, value not given), biocide concentration 1 of 4
  CDI (coefficient of drug interaction): 1.03
Gold section of Table 5, second of three gold concentrations (μM, value not given), biocide concentration 2 of 4
  CDI (coefficient of drug interaction): 1.05
Gold section of Table 5, second of three gold concentrations (μM, value not given), biocide concentration 3 of 4
  CDI (coefficient of drug interaction): 1.11
Gold section of Table 5, second of three gold concentrations (μM, value not given), biocide concentration 4 of 4
  CDI (coefficient of drug interaction): 0.85
Gold section of Table 5, third of three gold concentrations (μM, value not given), biocide concentration 1 of 4
  CDI (coefficient of drug interaction): 1.07
Gold section of Table 5, third of three gold concentrations (μM, value not given), biocide concentration 2 of 4
  CDI (coefficient of drug interaction): 1.16
Gold section of Table 5, third of three gold concentrations (μM, value not given), biocide concentration 3 of 4
  CDI (coefficient of drug interaction): 1.21
Gold section of Table 5, third of three gold concentrations (μM, value not given), biocide concentration 4 of 4
  CDI (coefficient of drug interaction): 2.21
[13]
  CDI: 0.91
[14]
  CDI: 0.92
[15]
  CDI: 1.10
[16]
  CDI: 0.35
Silver 1.0 μM, biocide concentration 1 of 4
  CDI: 1.03
[17]
  CDI: 1.10
[18]
  CDI: 1.06
[19]
  CDI: 0.55
[20]
  CDI: 1.25
[21]
  CDI: 0.60

## NC(CCC(=O)NO)C(=O)O [L-glutamic-γ-hydroxamate]
[1]
  CDI (coefficient of drug interaction): 1.14
[2]
  CDI (coefficient of drug interaction): 1.16
[3]
  CDI (coefficient of drug interaction): 0.97
[4]
  CDI (coefficient of drug interaction): 1.01
[5]
  CDI (coefficient of drug interaction): 0.87
[6]
  CDI (coefficient of drug interaction): 0.90
[7]
  CDI (coefficient of drug interaction): 0.92
[8]
  CDI (coefficient of drug interaction): 0.96
[9]
  CDI (coefficient of drug interaction): 0.75
[10]
  CDI (coefficient of drug interaction): 0.80
[11]
  CDI (coefficient of drug interaction): 0.69
[12]
  CDI (coefficient of drug interaction): 0.74
First of 3 gold concentrations, biocide concentration 1 of 4
  CDI (coefficient of drug interaction), gold + biocide: 1.03
First of 3 gold concentrations, biocide concentration 2 of 4
  CDI (coefficient of drug interaction), gold + biocide: 1.03
[22]
  CDI (coefficient of drug interaction), gold + biocide: 1.08
[23]
  CDI (coefficient of drug interaction), gold + biocide: 1.08
Second of 3 gold concentrations, biocide concentration 1 of 4
  CDI (coefficient of drug interaction), gold + biocide: 1.02
Second of 3 gold concentrations, biocide concentration 2 of 4
  CDI (coefficient of drug interaction), gold + biocide: 1.01
[24]
  CDI (coefficient of drug interaction), gold + biocide: 1.09
[25]
  CDI (coefficient of drug interaction), gold + biocide: 1.04
Third of 3 gold concentrations, biocide concentration 1 of 4
  CDI (coefficient of drug interaction), gold + biocide: 1.01
Third of 3 gold concentrations, biocide concentration 2 of 4
  CDI (coefficient of drug interaction), gold + biocide: 1.01
[26]
  CDI (coefficient of drug interaction), gold + biocide: 1.02
[27]
  CDI (coefficient of drug interaction), gold + biocide: 1.01
[13]
  CDI: 0.93
[14]
  CDI: 0.75
[15]
  CDI: 0.61
[16]
  CDI: 0.49
[17]
  CDI: 0.97
[18]
  CDI: 0.93
[19]
  CDI: 0.71
Silver 5.0 μM, biocide concentration 1 of 4
  CDI: 1.00
Silver 5.0 μM, biocide concentration 2 of 4
  CDI: 0.85
[20]
  CDI: 0.71
[21]
  CDI: 0.34

## c1ccc(-c2nn(-c3ccccc3)[n+](-c3cccc4ccccc34)n2)cc1 [Tetrazolium violet]
[3]
  CDI (coefficient of drug interaction): Tox
[4]
  CDI (coefficient of drug interaction): Tox
[7]
  CDI (coefficient of drug interaction): Tox
[8]
  CDI (coefficient of drug interaction): Tox
[11]
  CDI (coefficient of drug interaction): Tox
[12]
  CDI (coefficient of drug interaction): Tox
[22]
  CDI (coefficient of drug interaction), gold + biocide: Tox
[23]
  CDI (coefficient of drug interaction), gold + biocide: Tox
[24]
  CDI (coefficient of drug interaction), gold + biocide: Tox
[25]
  CDI (coefficient of drug interaction), gold + biocide: Tox
[26]
  CDI (coefficient of drug interaction), gold + biocide: Tox
[27]
  CDI (coefficient of drug interaction), gold + biocide: Tox
[15]
  CDI: Tox
[16]
  CDI: Tox
[18]
  CDI: Tox
[19]
  CDI: Tox
[20]
  CDI: Tox
[21]
  CDI: Tox

## O=[N+]([O-])c1ccc(Cl)c([N+](=O)[O-])c1 [1-chloro-2,4-dinitrobenzene]
[28]
  CDI (coefficient of drug interaction), copper mixed with biocide: Tox
2nd of 3 copper concentrations (value not shown)
  CDI (coefficient of drug interaction), copper mixed with biocide: Tox
[29]
  CDI (coefficient of drug interaction), copper mixed with biocide: Tox

## O=c1cc(O)c2ccccc2o1 [4-Hydroxy-coumarin]
[28]
  CDI (coefficient of drug interaction), copper mixed with biocide: Tox
[29]
  CDI (coefficient of drug interaction), copper mixed with biocide: Tox
Gold 5 μM, biocide concentration 4 of 4, E. coli
  CDI (coefficient of drug interaction): Tox
Gold 25 μM, biocide concentration 4 of 4, E. coli
  CDI (coefficient of drug interaction): Tox
Silver 0.5 μM, E. coli
  CDI (coefficient of drug interaction), silver + biocide: Tox
Silver 1.0 μM, E. coli
  CDI (coefficient of drug interaction), silver + biocide: Tox
Silver 5.0 μM, E. coli
  CDI (coefficient of drug interaction), silver + biocide: Tox
[…], biocide concentration 4 of 4, E. coli
  CDI (coefficient of drug interaction): Tox

## Cl.N[C@@H](CCl)C(=O)O [β-Chloro-L-alanine HCl, β-chloro-L-alanine hydrochloride]
[15]
  CDI: Tox
[16]
  CDI: Tox
[18]
  CDI: Tox
[19]
  CDI: Tox
[20]
  CDI: Tox
[21]
  CDI: Tox
